SMILES strings stand for the structures.

The subject of one series is hippocampal neurons. Description: Luciferine-luciferase luminescence assay of extracellular ATP release. The format is cell-based, mouse. The note with it: primary cultures; glutamate 100 µM; NEM 500 µM pre-treatment. On the procedure:
Hippocampal neurons were prepared as described previously (Diaz-Hernandez et al., 2008). Briefly, hippocampi were obtained from E17 mouse embryos and, after dissection and washing three times in Ca^2+/Mg^2+-free HBSS, tissue was digested in the same solution with 0.25% trypsin for 15 min at 37°C. Hippocampi were then washed three times in Ca^2+/Mg^2+-free HBSS and dissociated with a firepolished Pasteur pipette. Cells were counted, resuspended in plating medium (MEM, 10% fetal bovine serum, 0.6% glucose) and plated at a density of 5,000 cells/cm^2 on poly-L-lysine coated coverslips (1 mg/ml). After plating, neurons were cultured for 24-72 h in neuronal culture medium (Neurobasal, B-27, glutamax-I). For biochemical experiments, hippocampal neurons were plated on polylysine-coated (1 mg/ml) 60-mm plates at a density of 200,000 cells/cm^2, and cultured for 72 h in neuronal culture medium. AraC was added at a final concentration of 5 µM after 2 days in culture. Extracellular ATP concentration was measured as previously described (Diez-Zaera et al., 2011). Neurons were grown in 6-well plates at a density of 200,000 cells/cm^2. […] In some cases, ATP release was also measured in the presence of A-438079 (1 µM). ATP concentration was determined by comparison with a calibration curve generated with ATP standards diluted in the same buffer as the samples.

In a further series the test system is rat models. To be noted: mifepristone before or after the onset of SE; cited from earlier work.
Series [1] has as its system Adult male C57BL/6 mice. Description: Intra-amygdala KA-induced SE in mice, EEG, drug i.c.v. immediately prior to KA. The format is in vivo. The note with it: i.c.v. co-injection immediately prior to intra-amygdala KA; vs vehicle (antibody vs control IgG); lorazepam at 40 min. On the procedure:
(§1) Adult male C57BL/6 mice (20-25 g) were obtained from Harlan UK (Blackthorn, UK). Mice were first anesthetized using isoflurane (3-5%) and maintained normothermic by means of a feedback-controlled heat blanket (Harvard Apparatus Ltd, Kent, UK). Mice were next placed in a stereotaxic frame and three partial craniectomies performed to affix cortical skull-mounted EEG electrodes (Bilaney Consultants Ltd, Sevenoaks, UK). EEG was recorded using a Grass Comet XL digital EEG (Medivent Ltd, Lucan, Ireland). A guide cannula was affixed (coordinates from Bregma: AP = 0.94; L = 2.85 mm) and the assembly fixed in place with dental cement. Anesthesia was then discontinued and freely moving mice were placed inside a clear perspex recording chamber. EEG recordings were commenced and after establishing baseline EEG for a few minutes, an injection cannula was lowered through the guide cannula for injection of kainic acid (KA) (Ocean Produce International, Nova Scotia, Canada) into the basolateral amygdala nucleus (0.3 µg in 0.2 µl phosphate-buffered saline). Non-seizure control mice underwent the same surgical procedure but received 0.2 µl intra-amygdala vehicle. Mice were killed at different time-points (1, 4, 8 or 24 h) later and perfused with saline to remove intravascular blood components. Brains were either flash-frozen whole in 2-methylbutane at […] or perfused with 4% PFA for histopathology, or dissected on ice to obtain whole hippocampus or microdissected to obtain the different hippocampal subfields (CA1, DG and CA3).
Digitized EEG recordings were analyzed off-line using manual assessment and automated software. […] The duration of high-frequency (>5 Hz) high-amplitude (>2× baseline) polyspike discharges of ≥5 s duration (HAHFDs) was counted by a reviewer blind to treatment. Further EEG analysis was performed by uploading EEG into Labchart7 software (ADInstruments) to calculate the power spectral density (total power, a measure of the input signal's power (amplitude) over frequency) EEG spectrogram (spectral power against frequency and time).
All the following drugs were purchased from Sigma-Aldrich Ireland (Arklow, Ireland) and delivered by intracerebroventricular (i.c.v.) microinjection in 2 µl volume unless otherwise specified: Adenosine 5'-triphosphate (ATP) at 100 µM, Uridine-5'-triphosphate (UTP) at 100 µM, Uridine-5'-diphosphate (UDP) at 100 µM, 2-chloro-N6-cyclopentyladenosine (CCPA) 300 nM, Pyridoxal-phosphate-6-azophenyl-2,4-disulfonate (PPADS) at 50 µM, α,β- methylene- adenosine-5-triphosphate (α,β-meATP) at 0.1 nmol, 3-O-(4-benzoyl)benzyl-ATP (Bz-ATP) at 300 µM, Brillant Blue G (BBG) at 30 nM.
Lorazepam (Ativan®, Wyeth, Taplow, U.K.) (6 mg/kg) was administered intraperitoneally (i.p.) at 40 or 60 min after KA.
Next, a model of focal-onset SE was used to evaluate the contributions of ATP-gated receptors in vivo. Mice received intra-amygdala microinjection of KA to induce SE (Fig. 2C). […] The electroencephalogram (EEG) was recorded by using cranial electrodes (lower part of Fig. 2C). Seizures were curtailed after 40 min by the injection of lorazepam to minimize morbidity and mortality.

Series [2] deals with Adult male C57BL/6 mice. As to the kind of experiment: Histopathology of ipsilateral hippocampal CA3 after SE (FJB and NeuN counts). The series is classed as in vivo. To be noted: 24 h after SE; drug given prior to SE; vs vehicle. On the procedure:
as §1
Flash-frozen brains in 2-methylbutane were sectioned at -20°C on a Leica cryostat and 12 µm sections collected at the level of dorsal hippocampus (-1.8 mm and - 2.9 mm from Bregma according to a mouse stereotaxic atlas (Paxinos and Franklin, 2001). Neuronal death was assessed using Fluoro-Jade B (FJB) staining, as previously described (Engel et al., 2010; Murphy et al., 2010). Briefly, sections were air-dried and post-fixed in formalin followed by hydrating through graded alcohols. Sections were then rinsed in distilled water and transferred to 0.006% potassium permanganate solution for 15 min. Sections were rinsed again and transferred to a 0.001% FJB solution according to manufacturer's recommendations (Chemicon Europe Ltd, Chandlers Ford, UK). After staining, sections were mounted in DPX (Sigma-Aldrich). For NeuN immunohistochemistry, sections were fixed and permeabilized, blocked in goat serum and incubated overnight with anti-NeuN antibodies (Millipore Ireland B.V., Tullagreen, Ireland) followed by incubation with goat anti-rabbit IgG antibodies coupled to AlexaFluor 568 (BioSciences Limited, Dun Laoghaire, Ireland). Sections were examined using a Nikon 2000s epifluorescence microscope under Ex/Em wavelengths of 472/520 nm (green) and 540 to 580/600 to 660 nm (red) and images captured using a Hamamatsu Orca 285 camera. Cell counts were the average of two adjacent sections for the CA3 subfield under 40x lens magnification by an observer blinded to treatment.

Series [3] deals with Adult male C57BL/6 mice. As to the kind of experiment: Refractory SE model in mice, drugs given 60 min post-KA, EEG during the next hour. The format is in vivo. On the procedure:
as §1
Digitized EEG recordings were analyzed off-line using manual assessment and automated software. The occurrence of high amplitude high frequency spiking during seizures is synonymous with injury-causing electrographic seizures during SE (also termed type IV electrographic seizures) (Lowenstein et al., 1991; Henshall et al., 2000). The duration of high-frequency (>5 Hz) high-amplitude (>2× baseline) polyspike discharges of ≥5 s duration (HAHFDs) was counted by a reviewer blind to treatment. Further EEG analysis was performed by uploading EEG into Labchart7 software (ADInstruments) to calculate the power spectral density (total power, a measure of the input signal's power (amplitude) over frequency) EEG spectrogram (spectral power against frequency and time).
A-438079 (3-[[5-(2,3-Dichlorophenyl)-1H-tetrazol-1-yl]methyl]pyridine hydrochloride) (50 µM) was from Tocris Biosciences (Bristol, U.K.) and the P2X7R specific antibody was from Alomone Labs (APR-008, Alomone Labs, Ltd, Jerusalem, Israel) and injected at 0.7 mg/ml. Lorazepam (Ativan®, Wyeth, Taplow, U.K.) (6 mg/kg) was administered intraperitoneally (i.p.) at 40 or 60 min after KA.
To model refractory SE, seizures were allowed to continue beyond the normal time when lorazepam is given (40 min) and instead the effects of drugs were recorded 60 min post-KA on the EEG during the next hour.

The conditions of series [4]: in vivo; cited from earlier work.
The subject of a further series is neonatal seizures. To be noted: in vivo; cited from earlier work.

As to `CCN1C(=O)C=CC1=O` [NEM, N-Ethylmaleimide], the “ATP release from hippocampal neurons” value in the series on hippocampal neurons was “ATP release was blocked”.
Consider `CC#C[C@]1(O)CC[C@H]2[C@@H]3CCC4=CC(=O)CCC4=C3[C@@H](c3ccc(N(C)C)cc3)C[C@@]21C` [mifepristone], for which, in the series with rat models, the efficiency of diazepam result was “increases efficiency of diazepam”.
`Nc1ncnc2c1ncn2[C@@H]1O[C@H](COP(=O)(O)OP(=O)(O)OP(=O)(O)O)[C@@H](O)[C@H]1O` [ATP, Adenosine 5'-triphosphate]: the “seizure time during SE (duration of HAHFDs)” value (“seizure time during SE” below) in the series with Adult male C57BL/6 mice [1] is given as “significantly increased”.
Same read-out and setting: with `Nc1ncnc2c1ncn2[C@@H]1O[C@H](COP(=O)(O)OP(=O)(O)OP(=O)(O)O)[C@@H](OC(=O)c2ccc(C(=O)c3ccccc3)cc2)[C@H]1O` [BzATP, 3-O-(4-benzoyl)benzyl-ATP] the entry was “significant increase of seizure time”.
In the case of `Cc1nc(N=Nc2ccc(S(=O)(=O)O)cc2S(=O)(=O)O)c(COP(=O)(O)O)c(C=O)c1O` [PPADS, Pyridoxal-phosphate-6-azophenyl-2,4-disulfonate], the “seizure time during SE” value in the series with Adult male C57BL/6 mice [1] is reported as “only a weak, non-significant effect”. Besides, in the series on Adult male C57BL/6 mice [2], the “Counts of surviving CA3 neurons (NeuN)” value was “not protective” and the “FJB-positive cells within the CA3 subfield (neuronal death)” value is reported as “did not afford protection”.
On to `OC[C@H]1O[C@@H](n2cnc3c(NC4CCCC4)nc(Cl)nc32)[C@H](O)[C@@H]1O` [CCPA, 2-chloro-N6-cyclopentyladenosine], for which the “seizure time during SE” value in the series on Adult male C57BL/6 mice [1] is “significantly reduced”.
`N[C@@H](CCC(=O)O)C(=O)O` [glutamate]: the “ATP release from hippocampal neurons” value in the series with hippocampal neurons is “induced the rapid release of ATP”.
Regarding `Nc1ncnc2c1ncn2C1OC(COP(=O)(O)CP(=O)(O)OP(=O)(O)O)C(O)C1O` (stereo not drawn) [α/β-methylATP, α,β-methylene-adenosine-5-triphosphate], the “seizure time during SE” value in the series on Adult male C57BL/6 mice [1] is reported as “no differences in seizure time”.
Consider `O=C1Nc2ccc(Cl)cc2C(c2ccccc2Cl)=NC1O` (stereo not drawn) [lorazepam, Lorazepam], for which the “total seizure time (duration of HAHFDs)” value with Adult male C57BL/6 mice [3] (given 60 min after KA, 60 min recording, vs vehicle) is “failed to significantly reduce”. Moreover, the “total seizure power (total EEG power)” value with Adult male C57BL/6 mice [3] (given 60 min after KA, vs vehicle) was “significant reduction”. The “mice continued in SE” value in the series with Adult male C57BL/6 mice [3] (given alone 60 min after KA, number of mice / group) is recorded as 4/7. Also, in the series on Adult male C57BL/6 mice [3] (total power analysis, Fig. 9C, given 60 min after KA, compared to Veh), the reduction in power is listed as approximately 50%. For the same molecule, the duration of action in series [4] was 2 to 8 h.
As to `CCC1(c2ccccc2)C(=O)NC(=O)NC1=O` [phenobarbitone], in the series with neonatal seizures, the “cases in which neonatal seizures are not stopped” value is “over 50%”.
In the case of `O=c1ccn([C@@H]2O[C@H](COP(=O)(O)OP(=O)(O)OP(=O)(O)O)[C@@H](O)[C@H]2O)c(=O)[nH]1` [UTP, Uridine-5'-triphosphate], the “seizure time during SE” value in the series with Adult male C57BL/6 mice [1] was “no differences in seizure time”.
Regarding `O=c1ccn([C@@H]2O[C@H](COP(=O)(O)OP(=O)(O)O)[C@@H](O)[C@H]2O)c(=O)[nH]1` [UDP, Uridine-5'-diphosphate], the “seizure time during SE” value in the series on Adult male C57BL/6 mice [1] is on record as “no differences in seizure time”.
